Where two headings read alike, the source gives them in different places. Values belong to the compound of their own block, whether it stands above or below them.
Key:
[1] = cn_pd bond, 1,4-dioxane
[2] = target: T1, human TYK2 (JH2domain-pseudokinase) (Homo sapiens, UniProt P29597); assay: TYK2 JH2 domain binding assay (KINOMEscan); conditions: duplicate
T1 construct: host or cells: transiently transfected HEK293 cells; unpurified extract
Method: Binding constants for the compounds described herein against the JH2 domain were determined by the following protocol for a KINOMEscan® assay (DiscoveRx). A fusion protein of a partial length construct of human TYK2 (JH2domain-pseudokinase) (amino acids G556 to D888 based on reference sequence NP_003322.3) and the DNA binding domain of NFkB is expressed in transiently transfected HEK293 cells. From these HEK 293 cells, extracts are prepared in M-PER extraction buffer (Pierce) in the presence of Protease Inhibitor Cocktail Complete (Roche) and Phosphatase Inhibitor Cocktail Set II (Merck) per manufacturers' instructions. The TYK2 (JH2domain-pseudokinase) fusion protein is labeled with a chimeric double-stranded DNA tag containing the NFkB binding site fused to an amplicon for qPCR readout, which is added directly to the expression extract (the final concentration of DNA-tag in the binding reaction is 0.1 nM).
The liganded beads are blocked with excess biotin and washed with blocking buffer (SeaBlock (Pierce), 1% BSA, 0.05% Tween 20, 1 mM DTT) to remove unbound ligand and to reduce nonspecific binding.
Extracts are used directly in binding assays without any enzyme purification steps at a ≥10,000-fold overall stock dilution (final DNA-tagged enzyme concentration <0.1 nM). Extracts are loaded with DNA-tag and diluted into the binding reaction in a two-step process. First extracts are diluted 1:100 in 1× binding buffer (PBS/0.05% Tween 20/10 mM DTT/0.1% BSA/[…] sonicated salmon sperm DNA) containing 10 nM DNA-tag. This dilution is allowed to equilibrate at room temperature for 15 minutes and then subsequently diluted 1:100 in 1× binding buffer. Test compounds were prepared as 111×stocks in 100% DMSO. […] The compounds are then diluted directly into the assays such that the final concentration of DMSO was 0.9%. All reactions are performed in polypropylene 384-well plates. Each was a final volume of 0.02 mL.
Assays are incubated with shaking for 1 hour at room temperature. Then the beads are pelleted and washed with wash buffer (1×PBS, 0.05% Tween 20) to remove displaced kinase and test compound. […] The kinase concentration in the eluates was measured by qPCR. qPCR reactions are assembled by adding […] of kinase eluate to […] of qPCR master mix containing […] amplicon primers and […] amplicon probe. The qPCR protocol consisted of a 10 minute hot start at 95° C., followed by 35 cycles of 95° C. for 15 seconds, 60° C. for 1 minute.
Test compounds are prepared as 111×stocks in 100% DMSO. […] The compounds are then diluted directly into the assays such that the final concentration of DMSO was 0.9%. The Kds are determined using a compound top concentration of 30,000 nM. Kd measurements are performed in duplicate.
Binding constants (Kds) were calculated with a standard dose-response curve using the Hill equation: […]
The Hill Slope was set to −1. Curves were fitted using a non-linear least square fit with the Levenberg-Marquardt algorithm (Levenberg, K., A method for the solution of certain non-linear problems in least squares, Q. Appl. Math. 2, 164-168 (1944)).

[3] = tested on: INFα induced pSTAT5; assay: INFα induced pSTAT5 in human PBMC; type: cell-based; conditions: Homo sapiens, PBMC, INFα 5000 units/ml, read-out: p-STAT5 IC50
Method: Fresh Human PBMCs were resuspended in RPMI 1640 medium with 10% FBS. Cells were seeded in a round bottom 96-well plate at the concentration of 200,000 cells/well. A 10-point dilution series of test compound (top dose 10 uM, 1:5 dilution) was added to the well using the liquid dispenser (Tecan D300e) and incubated for 1 hour at 37 C. Then human INFα recombinant protein (R&D Systems) was added to the well at the final concentration of 5000 units/ml and incubated for 15 minutes at 37 C. Cell lysates were prepared and analyzed by Phospho STAT3 (Tyr705) cellular kit (Cisbio) or Phospho STAT5 (Tyr693) Kit (Meso Scale Discovery) following manufacturer's protocol.
For calculation of the inhibition rate, the relative pSTAT signal of each well=pSTAT signal of each well−the average pSTAT signal of baseline.
The inhibition %=(the average pSTAT signal of INFα treatment wells—the relative of pSTAT signal in each compound containing well)/the average pSTAT signal of INFα treatment wells * 100%
The curve was plotted as the inhibition % (y-axis) vs. compounds concentration (x-axis) and was fitted with log(inhibitor) vs. normalized response—Variable slope by GraphPad Prism7.0.

[4] = Pharmacokinetic studies in Sprague Dawley rats; type: in vivo; conditions: rat, plasma, male Sprague Dawley rats
Method: The pharmacokinetics of test compounds were evaluated in male Sprague Dawley rats when administered via oral gavage and IV injection. The test compound was suspended in 0.5% methylcellulose for oral gavage and dissolved in 5% DMSO/5% Solutol/90% saline for IV injection. The animals were fasted overnight before administration. Plasma samples were collected predose and at 0.5, 1, 3, 6, 9, 12, and 24 hours postdose. The samples were analyzed by LC/MS/MS and the concentration of test compound at each timepoint was determined by linear regression. Pharmacokinetic parameters were calculated from the plasma concentrations using Pheonix WinNonlin.

T1 sequence (P29597 556-888): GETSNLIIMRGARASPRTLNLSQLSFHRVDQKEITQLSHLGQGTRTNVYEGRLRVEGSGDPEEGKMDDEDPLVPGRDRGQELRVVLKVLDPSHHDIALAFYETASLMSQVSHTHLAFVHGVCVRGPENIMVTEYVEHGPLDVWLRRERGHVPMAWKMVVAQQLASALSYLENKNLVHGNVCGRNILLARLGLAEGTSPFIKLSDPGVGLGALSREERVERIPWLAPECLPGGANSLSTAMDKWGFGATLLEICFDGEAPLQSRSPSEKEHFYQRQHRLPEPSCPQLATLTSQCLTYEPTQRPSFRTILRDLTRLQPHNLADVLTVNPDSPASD

Structure (SMILES): CNC(=O)Oc1cc(Cl)nn2c(C(=O)NC3CC(OCc4ccc(OC)c([N+](=O)[O-])c4)C3)cnc12 (stereo not shown)
ring closure, isolated yield ([1]; the molecule shown is the open-chain precursor, 15-membered ring, tBuXPhos-Pd-G3/Cs2CO3, 50.0 mM, 80.0 °C): 20.2%

Structure (SMILES): COc1c(F)cc2cc1Nc1cc(N(C)C(=O)OC(C)(C)C)n3ncc(c3n1)C(=O)N[C@H](C)COC2
ring closure, isolated yield ([1]; from COc1c(N)cc(COC[C@@H](C)NC(=O)c2cnn3c(N(C)C(=O)OC(C)(C)C)cc(Cl)nc23)cc1F, 14-membered ring, tBuXPhos-Pd-G3/Cs2CO3, 8.4 mM, 80.0 °C, 2.0 h): 52.5%

Structure (SMILES): COc1c(F)cc2cc1Nc1cc(NC(=O)OC(C)(C)C)c3ncc(n3n1)C(=O)N[C@H](C)COC2
ring closure, isolated yield ([1]; from COc1c(N)cc(COC[C@@H](C)NC(=O)c2cnc3c(NC(=O)OC(C)(C)C)cc(Cl)nn23)cc1F, 14-membered ring, tBuXPhos-Pd-G3/Cs2CO3, 8.4 mM, 80.0 °C, 2.0 h): 52.5%

Structure (SMILES): COc1c2cc(c(F)c1F)COC[C@@H](C)NC(=O)c1cnc3c(NC(=O)OC(C)(C)C)cc(nn13)N2
ring closure, isolated yield ([1]; from COc1c(N)cc(COC[C@@H](C)NC(=O)c2cnc3c(NC(=O)OC(C)(C)C)cc(Cl)nn23)c(F)c1F, 14-membered ring, tBuXPhos-Pd-G3/Cs2CO3, 3.5 mM, 80.0 °C, 2.0 h): 47%

Structure (SMILES): COc1cc(F)c2cc1Nc1cc(N(C)C(=O)OC(C)(C)C)c3ncc(n3n1)C(=O)NC(C)COC2 (stereo not shown)
ring closure, isolated yield ([1]; from COc1cc(F)c(COCC(C)NC(=O)c2cnc3c(N(C)C(=O)OC(C)(C)C)cc(Cl)nn23)cc1N, 14-membered ring, tBuXPhos-Pd-G3/Cs2CO3, 4.1 mM, 85.0 °C, 2.0 h): 53.6%

Structure (SMILES): COc1cc(F)c2cc1Nc1cc(N(C)C(=O)OC(C)(C)C)n3ncc(c3n1)C(=O)N[C@H](C)COC2
ring closure, isolated yield ([1]; from COc1cc(F)c(COC[C@@H](C)NC(=O)c2cnn3c(N(C)C(=O)OC(C)(C)C)cc(Cl)nc23)cc1N, 14-membered ring, Pd2(dba)3/XPhos/Cs2CO3, 23.3 mM, 90.0 °C, 1.0 h): 74%

Structure (SMILES): COc1cc(F)c2cc1Nc1cc(NC(=O)OC(C)(C)C)c3ncc(n3n1)C(=O)N[C@H](C)COC2
ring closure, isolated yield ([1]; from COc1cc(F)c(COC[C@@H](C)NC(=O)c2cnc3c(NC(=O)OC(C)(C)C)cc(Cl)nn23)cc1N, 14-membered ring, tBuXPhos-Pd-G3/Cs2CO3, 10.25 mM, 80.0 °C, 2.0 h): 56.1%

Structure (SMILES): COc1cc2cnn3c2cc1Nc1cc(N(C)C(=O)OC(C)(C)C)c2ncc(n2n1)C(=O)NC(C)CC3 (stereo not shown)
ring closure, isolated yield ([1]; from COc1cc2cnn(CCC(C)NC(=O)c3cnc4c(N(C)C(=O)OC(C)(C)C)cc(Cl)nn34)c2cc1N, 14-membered ring, tBuXPhos-Pd-G3/Cs2CO3, 25.0 mM, 80.0 °C, 3.0 h): 59%

Structure (SMILES): COc1ccc2cc1Nc1cc(N(C)C(=O)OC(C)(C)C)c3ncc(n3n1)C(=O)NC1(CC1)COC2
ring closure, isolated yield ([1]; from COc1ccc(COCC2(NC(=O)c3cnc4c(N(C)C(=O)OC(C)(C)C)cc(Cl)nn34)CC2)cc1N, 14-membered ring, tBuXPhos-Pd-G3/Cs2CO3, 15.0 mM, 85.0 °C, 2.0 h): 58.7%

Structure (SMILES): COc1ccc2cc1Nc1cc(N(C)C(=O)OC(C)(C)C)c3ncc(n3n1)C(=O)N[C@H](C)CN(C)C2
ring closure, isolated yield ([1]; from COc1ccc(CN(C)C[C@@H](C)NC(=O)c2cnc3c(N(C)C(=O)OC(C)(C)C)cc(Cl)nn23)cc1N, 14-membered ring, Pd2(dba)3/XPhos/Cs2CO3, 56.0 mM, 95.0 °C, 3.5 h): 10.8%

Structure (SMILES): COc1ccc2nc1Nc1cc(N(C)C(=O)OC(C)(C)C)n3ncc(c3n1)C(=O)N[C@H](C)COC2
ring closure, isolated yield ([1]; from COc1ccc(COC[C@@H](C)NC(=O)c2cnn3c(N(C)C(=O)OC(C)(C)C)cc(Cl)nc23)nc1N, 14-membered ring, Pd2(dba)3/XPhos/Cs2CO3, 6.3 mM, 95.0 °C, 3.5 h): 84.2%

Structure (SMILES): COc1nnc2cc1Nc1cc(N(C)C(=O)OC(C)(C)C)n3ncc(c3n1)C(=O)N[C@H](C)COC2
ring closure, isolated yield ([1]; from COc1nnc(COC[C@@H](C)NC(=O)c2cnn3c(N(C)C(=O)OC(C)(C)C)cc(Cl)nc23)cc1N, 14-membered ring, tBuXPhos-Pd-G3/Cs2CO3, […], 80.0 °C, 2.0 h): 21.7%

Structure (SMILES): C[C@@H]1COCc2cc(c(=O)n(C)n2)Nc2cc(N(C)C(=O)OC(C)(C)C)c3ncc(n3n2)C(=O)N1
ring closure, isolated yield ([1]; from C[C@H](COCc1cc(N)c(=O)n(C)n1)NC(=O)c1cnc2c(N(C)C(=O)OC(C)(C)C)cc(Cl)nn12, 14-membered ring, tBuXPhos-Pd-G3/Cs2CO3, […], 80.0 °C, 2.0 h): 78.2%

Structure (SMILES): C[C@@H]1COCc2cc(c(=O)n(C)n2)Nc2cc(N(C)C(=O)OC(C)(C)C)n3ncc(c3n2)C(=O)N1
ring closure, isolated yield ([1]; from C[C@H](COCc1cc(N)c(=O)n(C)n1)NC(=O)c1cnn2c(N(C)C(=O)OC(C)(C)C)cc(Cl)nc12, 14-membered ring, tBuXPhos-Pd-G3/Cs2CO3, 19.0 mM, 85.0 °C, 2.0 h): 70%

Structure (SMILES): C[C@@H]1COCc2cc(c3cn(C)nc3c2)Nc2cc(N(C)C(=O)OC(C)(C)C)n3ncc(c3n2)C(=O)N1
ring closure, isolated yield ([1]; from C[C@H](COCc1cc(N)c2cn(C)nc2c1)NC(=O)c1cnn2c(N(C)C(=O)OC(C)(C)C)cc(Cl)nc12, 14-membered ring, Pd2(dba)3/XPhos/Cs2CO3, 18.0 mM, 95.0 °C, 3.5 h): 82.2%

Structure (SMILES): C[C@@H]1COCc2cc(c3nccn3c2)Nc2cc(N(C)C(=O)OC(C)(C)C)n3ncc(c3n2)C(=O)N1
ring closure, isolated yield ([1]; from C[C@H](COCc1cc(N)c2nccn2c1)NC(=O)c1cnn2c(N(C)C(=O)OC(C)(C)C)cc(Cl)nc12, 14-membered ring, tBuXPhos-Pd-G3/Cs2CO3, 11.5 mM, 80.0 °C, 2.0 h): 72%

Structure (SMILES): C[C@@H]1COCc2ccc(F)c(c2)Nc2cc(N(C)C(=O)OC(C)(C)C)n3ncc(c3n2)C(=O)N1
ring closure, isolated yield ([1]; from C[C@H](COCc1ccc(F)c(N)c1)NC(=O)c1cnn2c(N(C)C(=O)OC(C)(C)C)cc(Cl)nc12, 14-membered ring, tBuXPhos-Pd-G3/Cs2CO3, 20.0 mM, 85.0 °C, 2.0 h): 30%

Structure (SMILES): Cc1cc2nc(n1)COC[C@@H](C)NC(=O)c1cnc3c(N(C)C(=O)OC(C)(C)C)cc(nn13)N2
ring closure, isolated yield ([1]; from Cc1cc(N)nc(COC[C@@H](C)NC(=O)c2cnc3c(N(C)C(=O)OC(C)(C)C)cc(Cl)nn23)n1, 14-membered ring, Pd2(dba)3/XPhos/Cs2CO3, 40.0 mM, 80.0 °C, 1.0 h): 53%

Kd [2]: 0.071 nM
IC50 [3]: 26.2 nM
Structure (SMILES): CNc1cc2nn3c(cnc13)C(=O)NCCOCc1ccc(OC)c(c1)N2 [Example 6]

IC50 [3]: 5.1 nM
AUC ([4]; iv, I.V. (1 mg/kg)): 472 ± 93 ng·h/mL
C0 ([4]; iv, I.V. (1 mg/kg)): 539 ± 54 ng/mL
clearance ([4]; iv, I.V. (1 mg/kg)): 36.1 ± 8 mL/min/kg
half-life ([4]; iv, I.V. (1 mg/kg)): 1.02 ± 0.059 h
Vd ([4]; iv, I.V. (1 mg/kg), read-out: Vdss): 2.17 ± 0.08 L/kg
AUC ([4]; Oral (5 mg/kg)): 147 ± 40 ng·h/mL
Cmax ([4]; Oral (5 mg/kg)): 22.2 ± 5 ng/mL
Tmax ([4]; Oral (5 mg/kg)): 2.67 ± 1.2 h
bioavailability ([4]; Oral (5 mg/kg)): 6.23 ± 1.7%
half-life ([4]; Oral (5 mg/kg)): 4.11 ± 1.9 h
Structure (SMILES): CNc1cc2nn3c(cnc13)C(=O)N[C@H](C)COCc1cc(c(=O)n(C)c1)N2 [Example 15]
